{
  "source": "the NIST ThermoML archive (doi:10.1021/acs.jced.5b00670)",
  "key": {"[1]": {"conditions": "298.15 K, 101.33 kPa, Liquid; for viscosity: Concentric cylinders viscometry; for mass density: Vibrating tube method"}, "[2]": {"test": "mn = molality of the nth substance listed, in mol/kg", "conditions": "298.15 K, 101.33 kPa, Liquid, Alternating current cell with electrodes"}},
  "note": "± gives the expanded uncertainty stated by the source.",
  "data": [
    {"molecule": "O", "note": "[water]", "values": [
      {"measurement": "viscosity", "setting": "[1]", "result": "0.89 ± 0.01", "unit": "mPa·s"}
    ]},
    {"molecule": "CCCC[P+](CCCC)(CCCC)CCCC.CS(=O)(=O)[O-]", "note": "[tetrabutylphosphonium methanesulfonate] + NC=O", "values": [
      {"measurement": "molar conductivity", "setting": "[2]; m1 = 0.00084", "result": "0.00215 ± 0.002", "unit": "S·m2/mol"},
      {"measurement": "molar conductivity", "setting": "[2]; m1 = 0.001471", "result": "0.00201 ± 0.002", "unit": "S·m2/mol"},
      {"measurement": "molar conductivity", "setting": "[2]; m1 = 0.002032", "result": "0.00186 ± 0.002", "unit": "S·m2/mol"},
      {"measurement": "molar conductivity", "setting": "[2]; m1 = 0.002641", "result": "0.00177 ± 0.002", "unit": "S·m2/mol"},
      {"measurement": "molar conductivity", "setting": "[2]; m1 = 0.003191", "result": "0.00167 ± 0.002", "unit": "S·m2/mol"},
      {"measurement": "molar conductivity", "setting": "[2]; m1 = 0.003793", "result": "0.00159 ± 0.002", "unit": "S·m2/mol"},
      {"measurement": "molar conductivity", "setting": "[2]; m1 = 0.004583", "result": "0.00148 ± 0.002", "unit": "S·m2/mol"},
      {"measurement": "molar conductivity", "setting": "[2]; m1 = 0.005305", "result": "0.00139 ± 0.002", "unit": "S·m2/mol"},
      {"measurement": "molar conductivity", "setting": "[2]; m1 = 0.006146", "result": "0.0013 ± 0.002", "unit": "S·m2/mol"},
      {"measurement": "molar conductivity", "setting": "[2]; m1 = 0.007072", "result": "0.00119 ± 0.002", "unit": "S·m2/mol"},
      {"measurement": "molar conductivity", "setting": "[2]; m1 = 0.007937", "result": "0.00113 ± 0.002", "unit": "S·m2/mol"},
      {"measurement": "molar conductivity", "setting": "[2]; m1 = 0.008497", "result": "0.00107 ± 0.002", "unit": "S·m2/mol"}
    ]},
    {"molecule": "CCCC[P+](CCCC)(CCCC)CCCC.CS(=O)(=O)[O-]", "note": "[tetrabutylphosphonium methanesulfonate] + C[N+](=O)[O-]", "values": [
      {"measurement": "molar conductivity", "setting": "[2]; m1 = 0.000865", "result": "0.00765 ± 0.002", "unit": "S·m2/mol"},
      {"measurement": "molar conductivity", "setting": "[2]; m1 = 0.001335", "result": "0.00741 ± 0.002", "unit": "S·m2/mol"},
      {"measurement": "molar conductivity", "setting": "[2]; m1 = 0.00177", "result": "0.00723 ± 0.002", "unit": "S·m2/mol"},
      {"measurement": "molar conductivity", "setting": "[2]; m1 = 0.002409", "result": "0.00698 ± 0.002", "unit": "S·m2/mol"},
      {"measurement": "molar conductivity", "setting": "[2]; m1 = 0.002979", "result": "0.00674 ± 0.002", "unit": "S·m2/mol"},
      {"measurement": "molar conductivity", "setting": "[2]; m1 = 0.003623", "result": "0.00653 ± 0.002", "unit": "S·m2/mol"},
      {"measurement": "molar conductivity", "setting": "[2]; m1 = 0.004197", "result": "0.0063 ± 0.002", "unit": "S·m2/mol"},
      {"measurement": "molar conductivity", "setting": "[2]; m1 = 0.004926", "result": "0.00611 ± 0.002", "unit": "S·m2/mol"},
      {"measurement": "molar conductivity", "setting": "[2]; m1 = 0.005713", "result": "0.00588 ± 0.002", "unit": "S·m2/mol"},
      {"measurement": "molar conductivity", "setting": "[2]; m1 = 0.006624", "result": "0.00563 ± 0.002", "unit": "S·m2/mol"},
      {"measurement": "molar conductivity", "setting": "[2]; m1 = 0.007619", "result": "0.00541 ± 0.002", "unit": "S·m2/mol"},
      {"measurement": "molar conductivity", "setting": "[2]; m1 = 0.008608", "result": "0.00518 ± 0.002", "unit": "S·m2/mol"}
    ]},
    {"molecule": "CC#N", "note": "[acetonitrile]", "values": [
      {"measurement": "viscosity", "setting": "[1]", "result": "0.34 ± 0.011", "unit": "mPa·s"},
      {"measurement": "mass density", "setting": "[1]", "result": "776.68 ± 0.2", "unit": "kg/m3"}
    ]},
    {"molecule": "NC=O", "note": "[formamide]", "values": [
      {"measurement": "viscosity", "setting": "[1]", "result": "3.3 ± 0.02", "unit": "mPa·s"},
      {"measurement": "mass density", "setting": "[1]", "result": "1129.22 ± 0.59", "unit": "kg/m3"}
    ]},
    {"molecule": "CCCC[P+](CCCC)(CCCC)CCCC.CS(=O)(=O)[O-]", "note": "[tetrabutylphosphonium methanesulfonate] + CC#N", "values": [
      {"measurement": "molar conductivity", "setting": "[2]; m1 = 0.000975", "result": "0.0159 ± 0.002", "unit": "S·m2/mol"},
      {"measurement": "molar conductivity", "setting": "[2]; m1 = 0.001787", "result": "0.0156 ± 0.002", "unit": "S·m2/mol"},
      {"measurement": "molar conductivity", "setting": "[2]; m1 = 0.002451", "result": "0.0154 ± 0.002", "unit": "S·m2/mol"},
      {"measurement": "molar conductivity", "setting": "[2]; m1 = 0.003035", "result": "0.0153 ± 0.002", "unit": "S·m2/mol"},
      {"measurement": "molar conductivity", "setting": "[2]; m1 = 0.00354", "result": "0.0151 ± 0.002", "unit": "S·m2/mol"},
      {"measurement": "molar conductivity", "setting": "[2]; m1 = 0.00398", "result": "0.015 ± 0.002", "unit": "S·m2/mol"},
      {"measurement": "molar conductivity", "setting": "[2]; m1 = 0.004717", "result": "0.0149 ± 0.002", "unit": "S·m2/mol"},
      {"measurement": "molar conductivity", "setting": "[2]; m1 = 0.005305", "result": "0.0148 ± 0.002", "unit": "S·m2/mol"},
      {"measurement": "molar conductivity", "setting": "[2]; m1 = 0.006188", "result": "0.0146 ± 0.002", "unit": "S·m2/mol"},
      {"measurement": "molar conductivity", "setting": "[2]; m1 = 0.007186", "result": "0.0145 ± 0.002", "unit": "S·m2/mol"},
      {"measurement": "molar conductivity", "setting": "[2]; m1 = 0.00808", "result": "0.0143 ± 0.002", "unit": "S·m2/mol"},
      {"measurement": "molar conductivity", "setting": "[2]; m1 = 0.008774", "result": "0.0142 ± 0.002", "unit": "S·m2/mol"}
    ]},
    {"molecule": "C[N+](=O)[O-]", "note": "[nitromethane]", "values": [
      {"measurement": "viscosity", "setting": "[1]", "result": "0.62 ± 0.021", "unit": "mPa·s"},
      {"measurement": "mass density", "setting": "[1]", "result": "1130.15 ± 1.8", "unit": "kg/m3"}
    ]},
    {"molecule": "CCCC[P+](CCCC)(CCCC)CCCC.CS(=O)(=O)[O-]", "note": "[tetrabutylphosphonium methanesulfonate] + CO", "values": [
      {"measurement": "molar conductivity", "setting": "[2]; m1 = 0.000912", "result": "0.00826 ± 0.002", "unit": "S·m2/mol"},
      {"measurement": "molar conductivity", "setting": "[2]; m1 = 0.001456", "result": "0.00793 ± 0.002", "unit": "S·m2/mol"},
      {"measurement": "molar conductivity", "setting": "[2]; m1 = 0.001998", "result": "0.00769 ± 0.002", "unit": "S·m2/mol"},
      {"measurement": "molar conductivity", "setting": "[2]; m1 = 0.002473", "result": "0.00752 ± 0.002", "unit": "S·m2/mol"},
      {"measurement": "molar conductivity", "setting": "[2]; m1 = 0.002947", "result": "0.00737 ± 0.002", "unit": "S·m2/mol"},
      {"measurement": "molar conductivity", "setting": "[2]; m1 = 0.003599", "result": "0.00721 ± 0.002", "unit": "S·m2/mol"},
      {"measurement": "molar conductivity", "setting": "[2]; m1 = 0.00425", "result": "0.007 ± 0.002", "unit": "S·m2/mol"},
      {"measurement": "molar conductivity", "setting": "[2]; m1 = 0.004926", "result": "0.00686 ± 0.002", "unit": "S·m2/mol"},
      {"measurement": "molar conductivity", "setting": "[2]; m1 = 0.005759", "result": "0.0066 ± 0.002", "unit": "S·m2/mol"},
      {"measurement": "molar conductivity", "setting": "[2]; m1 = 0.006723", "result": "0.00645 ± 0.002", "unit": "S·m2/mol"},
      {"measurement": "molar conductivity", "setting": "[2]; m1 = 0.007795", "result": "0.0062 ± 0.002", "unit": "S·m2/mol"},
      {"measurement": "molar conductivity", "setting": "[2]; m1 = 0.008664", "result": "0.00603 ± 0.002", "unit": "S·m2/mol"}
    ]},
    {"molecule": "CCCC[P+](CCCC)(CCCC)CCCC.CS(=O)(=O)[O-]", "note": "[tetrabutylphosphonium methanesulfonate] + O", "values": [
      {"measurement": "molar conductivity", "setting": "[2]; m1 = 0.000818", "result": "0.00412 ± 0.002", "unit": "S·m2/mol"},
      {"measurement": "molar conductivity", "setting": "[2]; m1 = 0.001471", "result": "0.00388 ± 0.002", "unit": "S·m2/mol"},
      {"measurement": "molar conductivity", "setting": "[2]; m1 = 0.002032", "result": "0.00366 ± 0.002", "unit": "S·m2/mol"},
      {"measurement": "molar conductivity", "setting": "[2]; m1 = 0.002641", "result": "0.00348 ± 0.002", "unit": "S·m2/mol"},
      {"measurement": "molar conductivity", "setting": "[2]; m1 = 0.003191", "result": "0.00334 ± 0.002", "unit": "S·m2/mol"},
      {"measurement": "molar conductivity", "setting": "[2]; m1 = 0.003793", "result": "0.00317 ± 0.002", "unit": "S·m2/mol"},
      {"measurement": "molar conductivity", "setting": "[2]; m1 = 0.004583", "result": "0.003 ± 0.002", "unit": "S·m2/mol"},
      {"measurement": "molar conductivity", "setting": "[2]; m1 = 0.005305", "result": "0.00288 ± 0.002", "unit": "S·m2/mol"},
      {"measurement": "molar conductivity", "setting": "[2]; m1 = 0.006146", "result": "0.00274 ± 0.002", "unit": "S·m2/mol"},
      {"measurement": "molar conductivity", "setting": "[2]; m1 = 0.007072", "result": "0.00258 ± 0.002", "unit": "S·m2/mol"},
      {"measurement": "molar conductivity", "setting": "[2]; m1 = 0.007937", "result": "0.00245 ± 0.002", "unit": "S·m2/mol"},
      {"measurement": "molar conductivity", "setting": "[2]; m1 = 0.008497", "result": "0.0024 ± 0.002", "unit": "S·m2/mol"}
    ]},
    {"molecule": "CO", "note": "[methanol]", "values": [
      {"measurement": "viscosity", "setting": "[1]", "result": "0.55 ± 0.01", "unit": "mPa·s"},
      {"measurement": "mass density", "setting": "[1]", "result": "786.61 ± 0.19", "unit": "kg/m3"}
    ]}
  ]
}
